Source: patent publication US20240024273A1, “TOPICAL ADMINISTRATION OF 2-(DIETHYLAMINO)ETHYL 2-(4-ISOBUTYLPHENYL)PROPRIONATE FOR TREATMENT OF DISEASES” (TECHFIELDS PHARMA CO., LTD., priority 2020, published 2024)

Experiments:
[1] = 14-day repeated dermal dose toxicity study; design: species or system Beagle dogs; conditions: beagle, dog, in vivo, topical or ocular; 14-day dermal
[2] = test system: Adjuvant-induced arthritis; assay: Adjuvant-induced arthritis; assay type: in vivo, Lewis rats; conditions: 10, 30 and 90 mg/kg daily, topical
[3] = Phase 1 clinical study: plasma pharmacokinetics of prodrug and ibuprofen; assay type: in vivo, human; conditions: steady-state, 70 mg
[4] = Acute maximum tolerated dose study, dermal; design: species or system Beagle dogs; conditions: beagle, dog, in vivo, topical or ocular; dermal application
mini pigs = assay: 39-week GLP repeated dermal dose toxicity and toxicokinetics study with 4-week recovery; assay type: in vivo; conditions: 5, 12.5 and 25 mg/kg dermal, 39 weeks
[5] = Acute maximum tolerated dose study, subcutaneous injection; design: species or system Beagle dogs; conditions: beagle, dog, in vivo, sc
[6] = Battery of nonclinical pharmacology and toxicology studies (overall); conditions: in vivo
Text: A battery of pharmacology and toxicology studies including a GLP acute dermal maximum tolerated dose study in rats, a GLP acute dermal maximum tolerated dose study in Beagle dogs, a non-GLP 14-day repeated dermal dose toxicity study in rats, a non-GLP 14-day repeated dermal dose toxicity study in Beagle dogs, a 28-day GLP repeated dermal dose toxicity and toxicokinetics study in rats with 14-day recovery, a 28-day GLP repeated dermal dose toxicity and toxicokinetics study in Beagle dogs with 14-day recovery, a GLP bacterial reverse mutation assay (Ames), a GLP in vitro chromosome aberration assay in CHO-WBL Cells, a GLP in vivo bone marrow micronucleus assay in rats, a behavioral effects in rats using the functional observational battery, a rat respiratory safety pharmacology study, a cardiovascular telemetry study in the unrestrained conscious non-naïve dog, a skin irritation study in rabbits, a study on embryo-fetal development in rats, a 39-week GLP repeated dermal dose toxicity and toxicokinetics study in mini pigs with 4-week recovery, a 26-week GLP repeated dermal dose toxicity and toxicokinetics study in rats with 4-week recovery, a study on fertility and early embryonic development to implantation in rats, a study on embryo-fetal development in rabbits, and a sensitization test in guinea pigs were conducted.

[7] = test system: healthy male and female volunteers; assay: Phase 1 clinical study: skin irritation assessment (dermal response score 0-7); assay type: in vivo, human; conditions: all dose groups
Description: Skin irritation due to study drug application was measured by a dermal response score of 0-7 assigned for each study drug application site prior to and 30 min following each dose administration. A score of 6 or 7 was considered a severe reaction. Pre-dose assessments during the multiple dosing served as the 12 hour post-dose assessment of the prior dose.

[8] = test system: Osteoarthritis Induced by Transection of the Anterior Cruciate Ligament (ACL); assay: Osteoarthritis induced by transection of the anterior cruciate ligament (I), treatment 4-10 weeks post-surgery; assay type: in vivo, SD Rats; conditions: transdermal; did not reach statistical significance
[9] = In vitro half-life with animal skin; assay type: in vitro ADME; conditions: read-out: in vitro T1/2 (converted)

Which results are given for `CCN(CC)CCOC(=O)C(C)c1ccc(CC(C)C)cc1` (stereo not shown) [2-(diethylamino)ethyl 2-(4-isobutylphenyl)propionate]?
NOAEL at 14 days [1]: 50 mg/kg/day; arthritis [2]: significantly inhibited arthritis.; relative bioavailability of spray vs topical application (plasma ibuprofen) [3]: comparable at steady-state; MTD [4]: ≥ 50 mg/kg; local or systemic adverse effects (mini pigs): mini pigs with 4-week recovery was done and no test article-related local; MTD [5]: 500 mg/kg; overall safety [6]: appeared to be safe and were generally well tolerated; maximum skin irritation score (0-7) [7]: ≤ 3; severity of osteoarthritic degeneration (histopathology) [8]: showed recognizable reduction in the severity of osteOArthritic; half-life [9]: ~20 h
